Experimental data taken from US20050192279A1, “Pyridazinones as antagonists of alpha4 integrins” (priority 2004, published 2005).

Tests used:
human α4β7 integrin = target: T1, human α4β7 integrin (Homo sapiens, UniProt P13612+P26010); test: α4β7-K562 Cell Adhesion Assay (α4β7 Mediated Adhesion/MAdCAM-1); format: cell-based; details: α4β7-K562 cell adhesion to hMAdCAM-1; read-out: α4β7 IC50
T1 construct: expressed in transfected cells; host or cells: K562 cells, stably transfected
T1 sequence (P13612 34-1032): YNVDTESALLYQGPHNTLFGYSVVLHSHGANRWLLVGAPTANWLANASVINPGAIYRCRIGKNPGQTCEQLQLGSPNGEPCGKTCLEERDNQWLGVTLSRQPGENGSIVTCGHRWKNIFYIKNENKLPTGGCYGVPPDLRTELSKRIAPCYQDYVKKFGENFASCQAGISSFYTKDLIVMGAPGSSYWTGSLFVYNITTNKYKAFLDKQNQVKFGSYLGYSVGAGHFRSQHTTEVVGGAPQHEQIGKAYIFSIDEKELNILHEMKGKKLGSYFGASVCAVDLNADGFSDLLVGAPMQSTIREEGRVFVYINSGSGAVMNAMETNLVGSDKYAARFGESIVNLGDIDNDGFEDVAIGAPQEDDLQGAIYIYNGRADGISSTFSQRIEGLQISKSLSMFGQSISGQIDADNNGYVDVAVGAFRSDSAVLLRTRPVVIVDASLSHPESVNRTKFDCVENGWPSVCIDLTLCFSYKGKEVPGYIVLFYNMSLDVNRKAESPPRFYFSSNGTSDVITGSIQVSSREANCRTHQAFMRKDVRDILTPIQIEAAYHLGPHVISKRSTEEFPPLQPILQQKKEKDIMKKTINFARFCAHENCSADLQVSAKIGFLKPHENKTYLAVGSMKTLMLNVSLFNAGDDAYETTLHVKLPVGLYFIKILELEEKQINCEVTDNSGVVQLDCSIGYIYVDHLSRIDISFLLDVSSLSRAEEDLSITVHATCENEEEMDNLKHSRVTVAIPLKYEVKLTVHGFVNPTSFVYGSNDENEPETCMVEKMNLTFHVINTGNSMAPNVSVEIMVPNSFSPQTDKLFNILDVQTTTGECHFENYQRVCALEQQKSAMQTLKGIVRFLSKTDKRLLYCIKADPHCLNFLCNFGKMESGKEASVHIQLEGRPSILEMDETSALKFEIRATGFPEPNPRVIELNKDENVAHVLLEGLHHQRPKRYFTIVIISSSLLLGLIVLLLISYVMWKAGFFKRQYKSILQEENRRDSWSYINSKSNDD
T1 sequence (P26010 20-798): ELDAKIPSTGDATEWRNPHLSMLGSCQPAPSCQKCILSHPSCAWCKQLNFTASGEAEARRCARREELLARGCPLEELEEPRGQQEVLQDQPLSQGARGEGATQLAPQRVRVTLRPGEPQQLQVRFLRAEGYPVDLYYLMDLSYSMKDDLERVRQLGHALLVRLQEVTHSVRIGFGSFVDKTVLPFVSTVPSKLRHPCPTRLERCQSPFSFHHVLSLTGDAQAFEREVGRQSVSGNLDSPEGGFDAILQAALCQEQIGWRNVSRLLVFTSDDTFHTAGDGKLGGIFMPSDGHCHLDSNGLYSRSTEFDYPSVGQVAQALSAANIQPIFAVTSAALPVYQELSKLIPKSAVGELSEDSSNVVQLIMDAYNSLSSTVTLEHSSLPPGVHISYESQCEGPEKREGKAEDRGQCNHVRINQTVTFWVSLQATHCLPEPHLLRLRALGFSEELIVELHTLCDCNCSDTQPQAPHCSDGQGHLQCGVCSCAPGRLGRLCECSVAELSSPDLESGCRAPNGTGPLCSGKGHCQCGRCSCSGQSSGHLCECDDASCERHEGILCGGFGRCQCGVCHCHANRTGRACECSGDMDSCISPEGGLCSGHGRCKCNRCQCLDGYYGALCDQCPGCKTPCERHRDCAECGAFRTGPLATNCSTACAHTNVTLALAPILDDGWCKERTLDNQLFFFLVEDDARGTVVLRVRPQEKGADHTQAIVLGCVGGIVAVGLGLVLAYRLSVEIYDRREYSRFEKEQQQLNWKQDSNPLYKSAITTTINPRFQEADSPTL
Experimental: α4β7-K562 Cell Adhesion Assay (α4β7 Mediated Adhesion/MAdCAM-1)
M2 anti-FLAG Antibody Coated 96-well plates (Sigma) were coated for 1 hour at 4° C. with 2-8 μl/well recombinant FLAG-hMAdCAM-1 contained in 100 μL of Dulbecco's PBS, pH 7.4, with 1% BSA and 1 mM Mn ^+2 (PBS-BSA-Mn). Plates were washed once with PBS-BSA-Mn. Buffer was removed and compounds to be tested (50 μL) were added at 2× concentration. Stably transfected K562 cells expressing human α4β7 integrin, (50 μL at 2×10^6/mL) that had been labeled with 100 μg/ml carboxymethyl fluorescein diacetate succinimidyl ester (CFDA-SE; Molecular Probes) for 15 min at 37° C. were added to each well and allowed to adhere for 1 h at room temperature. Plates were washed 4× in PBS-BSA-Mn and then cells were lysed for 2 minutes by addtion of 100 μL of PBS without Ca, Mg supplemented with 0.1 M NaOH.

α4β1 = target: T2, α4β1 (Homo sapiens, UniProt P05556+P13612); test: Ramos Cell Adhesion Assay (α4β1 Mediated Adhesion/VCAM-1); format: cell-based; details: Ramos cell adhesion to hVCAM-1; read-out: α4β1 IC50
T2 construct: Ramos Cell Adhesion Assay (α4β1 Mediated Adhesion/VCAM-1); endogenous in cells; host or cells: Ramos cells
Experimental: Ramos Cell Adhesion Assay (α4β1 Mediated Adhesion/VCAM-1)
Immulon 96 well plates (Dynex) were coated with 100 μL recombinant hVCAM-1 at 4.0 μg/mL in 0.05 M NaCO3 buffer pH 9.0 overnight at 4° C. (R&D Systems). Plates were washed 2 times in PBS with 1% BSA and blocked for 1 h @ room temperature in this buffer. PBS was removed and compounds to be tested (50 μL) were added at 2× concentration. Ramos cells, (50 μL at 2×10^6/mL) labeled with 5 μM Calcein AM (Molecular Probes) for 1 h at 37° C., were added to each well and allowed to adhere for 1 h at room temperature. Plates were washed 4× in PBS+1% BSA and cells were lysed for 15 minutes in 100 μL of 1 M Tris pH 8.0 with 1% SDS.

T2 sequence (P05556 21-798, one chain of several): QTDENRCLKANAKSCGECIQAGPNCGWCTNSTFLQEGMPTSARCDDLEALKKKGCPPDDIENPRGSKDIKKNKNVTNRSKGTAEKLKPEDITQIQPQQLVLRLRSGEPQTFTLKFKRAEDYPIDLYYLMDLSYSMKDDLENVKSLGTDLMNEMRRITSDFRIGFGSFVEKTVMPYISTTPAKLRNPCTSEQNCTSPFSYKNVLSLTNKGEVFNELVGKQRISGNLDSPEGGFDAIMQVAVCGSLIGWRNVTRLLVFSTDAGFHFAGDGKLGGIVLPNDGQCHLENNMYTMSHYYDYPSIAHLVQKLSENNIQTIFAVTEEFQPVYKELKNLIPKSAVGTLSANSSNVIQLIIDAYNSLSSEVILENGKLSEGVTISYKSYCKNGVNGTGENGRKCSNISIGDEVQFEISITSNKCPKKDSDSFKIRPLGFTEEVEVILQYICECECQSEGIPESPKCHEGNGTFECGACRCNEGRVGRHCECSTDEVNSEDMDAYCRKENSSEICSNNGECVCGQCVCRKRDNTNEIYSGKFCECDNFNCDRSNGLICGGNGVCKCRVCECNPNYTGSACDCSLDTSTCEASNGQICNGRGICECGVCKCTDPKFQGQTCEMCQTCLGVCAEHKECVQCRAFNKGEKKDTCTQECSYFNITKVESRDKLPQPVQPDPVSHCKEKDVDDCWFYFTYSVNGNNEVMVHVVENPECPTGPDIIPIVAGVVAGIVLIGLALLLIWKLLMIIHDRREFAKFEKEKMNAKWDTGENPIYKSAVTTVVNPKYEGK

Row | Structure (SMILES) | IC50 (human α4β7 integrin) | IC50 (α4β1)
1 | COCCOCCOC(=O)[C@H](Cc1ccc(-c2c(OC)cnn(C)c2=O)cc1)NC(=O)c1c(Cl)cccc1Cl [Cpd 91] | 49 nM | 2380 nM
2 | CC(C)(C)C(=O)Cn1ncc(NC2CC2)c(-c2ccc(C[C@H](NC(=O)c3c(Cl)cccc3Cl)C(=O)O)cc2)c1=O [Cpd 92] | 52 nM | > 5000 nM
3 | O=C(N[C@@H](Cc1ccc(-c2c(Cl)cnn(CC3CC3)c2=O)cc1)C(=O)O)c1c(Cl)cccc1Cl [Cpd 93, (S)-3-[4-(5-Chloro-2-cyclopropylmethyl-3-oxo-2,3-dihydro-pyridazin-4-yl)-phenyl]-2-(2,6-dichloro-benzoylamino)-propionic acid] | 52 nM | > 5000 nM
4 | O=C(N[C@@H](Cc1ccc(-c2c(-n3cc(Br)cn3)cnn(CCO)c2=O)cc1)C(=O)O)c1c(Cl)cccc1Cl [Cpd 94] | 53 nM | 1320 nM
5 | Cn1ncc(O)c(-c2ccc(C[C@H](NC(=O)c3c(Cl)cccc3Cl)C(=O)O)cc2)c1=O [Cpd 95, (S)-2-(2,6-Dichloro-benzoylamino)-3-[4-(5-hydroxy-2-methyl-3-oxo-2,3-dihydro-pyridazin-4-yl)-phenyl]-propionic acid] | 53.5 nM | 480 nM
6 | COc1cnn(C)c(=O)c1-c1ccc(C[C@H](NC(=O)CN(C)C(=O)OCc2ccccc2)C(=O)O)cc1 [Cpd 96] | 56 nM | 1790 nM
7 | COc1cnn(C)c(=O)c1-c1ccc(CC(NC(=O)c2c(Cl)cccc2Cl)C(=O)OCCO)cc1 (centres unmarked) [Cpd 97, 2-(2,6-Dichloro-benzoylamino)-3-[4-(5-methoxy-2-methyl-3-oxo-2,3-dihydro-pyridazin-4-yl)-phenyl]-propionic acid 2-hydroxy-ethyl ester] | 58 nM | 3240 nM
8 | COc1cnn(C)c(=O)c1-c1ccc(C[C@H](NC(=O)C2(NC3CCCCC3)CCOCC2)C(=O)O)cc1 [Cpd 98] | 248 nM | 3840 nM
9 | COc1cnn(C)c(=O)c1-c1ccc(C[C@H](NC(=O)C23CCC(CC2)CN3)C(=O)O)cc1 [Cpd 99] | 60 nM | 264 nM
10 | COc1cnn(C)c(=O)c1-c1ccc(C[C@H](NC(=O)[C@@H]2C3CCC(CC3)N2C(=O)CCC(C)C)C(=O)O)cc1 [Cpd 100] | 60 nM | 272 nM
11 | COc1cnn(C)c(=O)c1-c1ccc(C[C@H](NC(=O)[C@@H]2C3CCC(CC3)N2C(=O)OCc2ccccc2)C(=O)O)cc1 [Cpd 103] | 67 nM | 629 nM
12 | COc1cnn(C)c(=O)c1-c1ccc(CC(NC(=O)C(NC(=O)Cc2ccsc2)C(C)C)C(=O)O)cc1 (centres unmarked) [Cpd 107, 3-[4-(5-Methoxy-2-methyl-3-oxo-2,3-dihydro-pyridazin-4-yl)-phenyl]-2-[3-methyl-2-(2-thiophen-3-yl-acetylamino)-butyrylamino]-propionic acid] | 71 nM | 306 nM
13 | COc1cnn(C)c(=O)c1-c1ccc(C[C@H](NC(=O)[C@@H]2C3CCC(CC3)N2S(=O)(=O)c2ccccc2)C(=O)O)cc1 [Cpd 108] | 72 nM | 2.7 nM
14 | CC(C)COC(=O)N[C@@H](Cc1ccc(-c2c(OCC(C)C)cnn(C)c2=O)cc1)C(=O)O [Cpd 111] | 82 nM | > 5000 nM
15 | Cn1ncc(OC(F)F)c(-c2ccc(C[C@H](NC(=O)c3c(Cl)cccc3Cl)C(=O)O)cc2)c1=O [Cpd 112, (S)-2-(2,6-Dichloro-benzoylamino)-3-[4-(5-difluoromethoxy-2-methyl-3-oxo-2,3-dihydro-pyridazin-4-yl)-phenyl]-propionic acid] | 85 nM | 289 nM
16 | COc1cnn(C)c(=O)c1-c1ccc(C[C@H](NC(=O)[C@@H]2C3CCC(CC3)N2C(=O)Cc2ccsc2)C(=O)O)cc1 [Cpd 113] | 88 nM | 44 nM
17 | COc1cnn(C)c(=O)c1-c1ccc(C[C@H]2C(=O)OCN2C(=O)c2c(Cl)cccc2Cl)cc1 [Cpd 114, (S)-4-{4-[3-(2,6-Dichloro-benzoyl)-5-oxo-oxazolidin-4-ylmethyl]-phenyl}-5-methoxy-2-methyl-2H-pyridazin-3-one] | 93 nM | > 5000 nM
18 | COc1cnn(C)c(=O)c1-c1ccc(C[C@H](NC(=O)C23CCC(CC2)CN3C(=O)CCc2ccco2)C(=O)O)cc1 [Cpd 115] | 94 nM | 63.5 nM
19 | COc1cnn(C)c(=O)c1-c1ccc(C[C@H](NC(=O)C2(N)CCOCC2)C(=O)O)cc1 [Cpd 116] | 97 nM | 656 nM
20 | COc1cnn(Cc2ccccc2)c(=O)c1-c1ccc(C[C@H](NC(=O)c2c(Cl)cccc2Cl)C(=O)O)cc1 [Cpd 117] | 102 nM | 518 nM
21 | COc1cnn(C)c(=O)c1-c1ccc(C[C@H](NC(=O)c2c(Cl)cccc2Cl)C(=O)OCCN2CCOCC2)cc1 [Cpd 118] | 103 nM | 1290 nM
22 | COc1cnn(C)c(=O)c1-c1ccc(C[C@H](NC(=O)c2c(Cl)cccc2Cl)C(=O)NCCO)cc1 [Cpd 119] | 105 nM | 3800 nM
23 | CCOC(=O)Cc1cnn(C)c(=O)c1-c1ccc(C[C@H](NC(=O)c2c(Cl)cccc2Cl)C(=O)O)cc1 [Cpd 121, (S)-2-(2,6-dichloro-benzoylamino)-3-[4-(5ethoxycarbonylmethyl-2-methyl-3-oxo-2,3-dihydro-pyridazin-4-yl)-phenyl]-propionic acid] | 114 nM | > 5000 nM
24 | COc1cnn(C)c(=O)c1-c1ccc(C[C@H](NC(=O)C23CCC(CC2)CN3C(=O)CCc2cnc[nH]2)C(=O)O)cc1 [Cpd 122] | 118 nM | 142 nM
25 | COc1cnn(C)c(=O)c1-c1ccc(C[C@H](NC(=O)CC(C)C)C(=O)O)cc1 [Cpd 124] | 119 nM | > 1000 nM
26 | COCCC(=O)N1C2CCC(CC2)[C@H]1C(=O)N[C@@H](Cc1ccc(-c2c(OC)cnn(C)c2=O)cc1)C(=O)O [Cpd 125] | 123 nM | 112 nM
27 | COc1cnn(C)c(=O)c1-c1ccc(C[C@H](NC(=O)C23CCC(CC2)CN3C(=O)OC(C)(C)C)C(=O)O)cc1 [Cpd 126] | 127 nM | 2460 nM
28 | COc1cnn(C)c(=O)c1-c1ccc(C[C@H](NC(=O)[C@@H](O)C(C)C)C(=O)O)cc1 [Cpd 127] | 133 nM | > 1000 nM
